Test results: the supplement of paper PMC11451515

Assays:
NOMO1 [1] = experiment: AUC of viability dose-response curve (% viability x log10 dose units); higher = less sensitive; details: 48 h
Summary of the method: (§1)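 Area under the curve was integrated by trapezoidal rule from a log-logistic fit of normalised viability, with curves exceeding full viability scaled and quality-control failures removed. The fit had four parameters over log10 doses. Viability came from CellTiter-Glo One luminescence, normalised per plate to DMSO and cell-free wells, after leukemia cells adapted to each medium (500 or 1000 cells/well, 1536-well plates) were exposed to library compounds in DMSO for 48 h at 37°C. The 11 threefold doses ran from 47 μM to 0.79 nM.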

SEM cells [2] = experiment: as above; details: 48 h
Summary of the method: as §1

P12-Ichikawa [3] = experiment: as above; details: 48 h
Summary of the method: as §1

SEM cells [4] = experiment: cell viability relative to DMSO control; higher = less cytotoxic; details: 48 h
Summary of the method: (§2)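 Viability is expressed as a percentage of DMSO wells within each plate, and cell-free wells serve as background. Seeding densities in the 1536-well plates (5 μl) were 500 cells/well for NOMO1 or SEM leukemia cells and 1000 cells/well for P12-Ichikawa. Each line was adapted for at least four passages in each medium. Library compounds in DMSO were pin-dosed at 47 μM to 0.79 nM (11 points, threefold), and CellTiter-Glo One luminescence was read after 48 h at 37°C.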

NOMO1 [5] = experiment: as above; details: 48 h
Summary of the method: as §2

P12-Ichikawa [6] = experiment: as above; details: HPLM + 10% dialyzed FBS, 48 h
Summary of the method: as §2

[7] = RPMI 5 mM glucose + 10% dialyzed FBS
[8] = HPLM + 10% dialyzed FBS, 0.000781 µM
[9] = HPLM + 10% dialyzed FBS, 0.00234 µM
[10] = HPLM + 10% dialyzed FBS, 0.00702 µM
[11] = HPLM + 10% dialyzed FBS, 0.0211 µM
[12] = HPLM + 10% dialyzed FBS, 0.0632 µM
[13] = HPLM + 10% dialyzed FBS, 0.19 µM
[14] = HPLM + 10% dialyzed FBS, 0.569 µM
[15] = HPLM + 10% dialyzed FBS, 1.71 µM
[16] = HPLM + 10% dialyzed FBS, 5.12 µM
[17] = HPLM + 10% dialyzed FBS, 15.4 µM
[18] = HPLM + 10% dialyzed FBS, 46.1 µM
[19] = RPMI 5 mM glucose + 10% FBS, 0.000781 µM
[20] = RPMI 5 mM glucose + 10% FBS, 0.00234 µM
[21] = RPMI 5 mM glucose + 10% FBS, 0.00702 µM
[22] = RPMI 5 mM glucose + 10% FBS, 0.0211 µM
[23] = RPMI 5 mM glucose + 10% FBS, 0.0632 µM
[24] = RPMI 5 mM glucose + 10% FBS, 0.19 µM
[25] = RPMI 5 mM glucose + 10% FBS, 0.569 µM
[26] = RPMI 5 mM glucose + 10% FBS, 1.71 µM
[27] = RPMI 5 mM glucose + 10% FBS, 5.12 µM
[28] = RPMI 5 mM glucose + 10% FBS, 15.4 µM
[29] = RPMI 5 mM glucose + 10% FBS, 46.1 µM
[30] = RPMI 5 mM glucose + 10% dialyzed FBS, 0.000781 µM
[31] = RPMI 5 mM glucose + 10% dialyzed FBS, 0.00234 µM
[32] = RPMI 5 mM glucose + 10% dialyzed FBS, 0.00702 µM
[33] = RPMI 5 mM glucose + 10% dialyzed FBS, 0.0211 µM
[34] = RPMI 5 mM glucose + 10% dialyzed FBS, 0.0632 µM
[35] = RPMI 5 mM glucose + 10% dialyzed FBS, 0.19 µM
[36] = RPMI 5 mM glucose + 10% dialyzed FBS, 0.569 µM
[37] = RPMI 5 mM glucose + 10% dialyzed FBS, 1.71 µM
[38] = RPMI 5 mM glucose + 10% dialyzed FBS, 5.12 µM
[39] = RPMI 5 mM glucose + 10% dialyzed FBS, 15.4 µM
[40] = RPMI 5 mM glucose + 10% dialyzed FBS, 46.1 µM

In the case of Nc1ncnc2c1c(-c1cccc(OCc3ccccc3)c1)cn2[C@H]1C[C@@H](CN2CCC2)C1, the “AUC of viability dose-response curve” value (NOMO1 [1]; HPLM + 10% dialyzed FBS) is reported as 433, the “AUC of viability dose-response curve” value (NOMO1 [1]; RPMI 5 mM glucose + 10% FBS) is reported as 459 and the “AUC of viability dose-response curve” value (NOMO1 [1]; [7]) is reported as 450. The “AUC of viability dose-response curve” value (SEM cells [2]; HPLM + 10% dialyzed FBS) was 437, the “AUC of viability dose-response curve” value (SEM cells [2]; RPMI 5 mM glucose + 10% FBS) was 456 and the “AUC of viability dose-response curve” value (SEM cells [2]; [7]) was 436. The “AUC of viability dose-response curve” value (P12-Ichikawa [3]; HPLM + 10% dialyzed FBS) was 458, the “AUC of viability dose-response curve” value (P12-Ichikawa [3]; RPMI 5 mM glucose + 10% FBS) was 465 and the “AUC of viability dose-response curve” value (P12-Ichikawa [3]; [7]) was 467. The cell viability (SEM cells [4]; [8]) was 103%, the cell viability (SEM cells [4]; [9]) was 125% and the cell viability (SEM cells [4]; [10]) was 119%. The cell viability (SEM cells [4]; [11]) was 123%, the cell viability (SEM cells [4]; [12]) was 117% and the cell viability (SEM cells [4]; [13]) was 126%. The cell viability (SEM cells [4]; [14]) was 109%, the cell viability (SEM cells [4]; [15]) was 114% and the cell viability (SEM cells [4]; [16]) was 96.4%. It also gave a cell viability (SEM cells [4]; [17]) of 75.3%, a cell viability (SEM cells [4]; [18]) of 62.9% and a cell viability (SEM cells [4]; [19]) of 110%. It also gave a cell viability (SEM cells [4]; [20]) of 115%, a cell viability (SEM cells [4]; [21]) of 121% and a cell viability (SEM cells [4]; [22]) of 107%. It also gave a cell viability (SEM cells [4]; [23]) of 112%, a cell viability (SEM cells [4]; [24]) of 107% and a cell viability (SEM cells [4]; [25]) of 123%. The cell viability (SEM cells [4]; [26]) was 117%, the cell viability (SEM cells [4]; [27]) was 111% and the cell viability (SEM cells [4]; [28]) was 91.3%. The cell viability (SEM cells [4]; [29]) was 64.4%.

Cc1ccc([S+](=O)([O-])OCC(=O)Nc2ccc(C(=O)O)c(O)c2)cc1 was tested, and the “AUC of viability dose-response curve” value (NOMO1 [1]; HPLM + 10% dialyzed FBS) was 469, the “AUC of viability dose-response curve” value (NOMO1 [1]; RPMI 5 mM glucose + 10% FBS) was 460 and the “AUC of viability dose-response curve” value (NOMO1 [1]; [7]) was 448. The “AUC of viability dose-response curve” value (SEM cells [2]; HPLM + 10% dialyzed FBS) was 458, the “AUC of viability dose-response curve” value (SEM cells [2]; RPMI 5 mM glucose + 10% FBS) was 438 and the “AUC of viability dose-response curve” value (SEM cells [2]; [7]) was 455. The “AUC of viability dose-response curve” value (P12-Ichikawa [3]; HPLM + 10% dialyzed FBS) was 446, the “AUC of viability dose-response curve” value (P12-Ichikawa [3]; RPMI 5 mM glucose + 10% FBS) was 469 and the “AUC of viability dose-response curve” value (P12-Ichikawa [3]; [7]) was 465. The cell viability (NOMO1 [5]; [8]) was 141%, the cell viability (NOMO1 [5]; [9]) was 123% and the cell viability (NOMO1 [5]; [10]) was 121%. The cell viability (NOMO1 [5]; [11]) was 117%, the cell viability (NOMO1 [5]; [12]) was 124% and the cell viability (NOMO1 [5]; [13]) was 145%. It also gave a cell viability (NOMO1 [5]; [14]) of 128%, a cell viability (NOMO1 [5]; [15]) of 132% and a cell viability (NOMO1 [5]; [16]) of 124%. The cell viability (NOMO1 [5]; [17]) was 146%, the cell viability (NOMO1 [5]; [18]) was 84.1% and the cell viability (NOMO1 [5]; [19]) was 122%. The cell viability (NOMO1 [5]; [20]) was 119%, the cell viability (NOMO1 [5]; [21]) was 124% and the cell viability (NOMO1 [5]; [22]) was 139%. For the same molecule, the cell viability (NOMO1 [5]; [23]) was 133%, the cell viability (NOMO1 [5]; [24]) was 150% and the cell viability (NOMO1 [5]; [25]) was 133%. It also gave a cell viability (NOMO1 [5]; [26]) of 130%, a cell viability (NOMO1 [5]; [27]) of 118% and a cell viability (NOMO1 [5]; [28]) of 121%. For the same molecule, the cell viability (NOMO1 [5]; [29]) was 102%, the cell viability (NOMO1 [5]; [30]) was 106% and the cell viability (NOMO1 [5]; [31]) was 113%. For the same molecule, the cell viability (NOMO1 [5]; [32]) was 127%, the cell viability (NOMO1 [5]; [33]) was 121% and the cell viability (NOMO1 [5]; [34]) was 131%. For the same molecule, the cell viability (NOMO1 [5]; [35]) was 139%, the cell viability (NOMO1 [5]; [36]) was 142% and the cell viability (NOMO1 [5]; [37]) was 142%. For the same molecule, the cell viability (NOMO1 [5]; [38]) was 146%, the cell viability (NOMO1 [5]; [39]) was 146% and the cell viability (NOMO1 [5]; [40]) was 122%. For the same molecule, the cell viability (SEM cells [4]; [8]) was 101%, the cell viability (SEM cells [4]; [9]) was 97.1% and the cell viability (SEM cells [4]; [10]) was 127%. For the same molecule, the cell viability (SEM cells [4]; [11]) was 118%, the cell viability (SEM cells [4]; [12]) was 125% and the cell viability (SEM cells [4]; [13]) was 106%. The cell viability (SEM cells [4]; [14]) was 125%, the cell viability (SEM cells [4]; [15]) was 132% and the cell viability (SEM cells [4]; [16]) was 136%. For the same molecule, the cell viability (SEM cells [4]; [17]) was 137%, the cell viability (SEM cells [4]; [18]) was 80.5% and the cell viability (SEM cells [4]; [19]) was 107%. The cell viability (SEM cells [4]; [20]) was 109%, the cell viability (SEM cells [4]; [21]) was 124% and the cell viability (SEM cells [4]; [22]) was 122%. For the same molecule, the cell viability (SEM cells [4]; [23]) was 138%, the cell viability (SEM cells [4]; [24]) was 130% and the cell viability (SEM cells [4]; [25]) was 150%. The cell viability (SEM cells [4]; [26]) was 142%, the cell viability (SEM cells [4]; [27]) was 153% and the cell viability (SEM cells [4]; [28]) was 81.9%. It also gave a cell viability (SEM cells [4]; [29]) of 11.9%, a cell viability (SEM cells [4]; [30]) of 99.7% and a cell viability (SEM cells [4]; [31]) of 103%. For the same molecule, the cell viability (SEM cells [4]; [32]) was 134%, the cell viability (SEM cells [4]; [33]) was 131% and the cell viability (SEM cells [4]; [34]) was 123%. It also gave a cell viability (SEM cells [4]; [35]) of 140%, a cell viability (SEM cells [4]; [36]) of 125% and a cell viability (SEM cells [4]; [37]) of 147%. For the same molecule, the cell viability (SEM cells [4]; [38]) was 144%, the cell viability (SEM cells [4]; [39]) was 109% and the cell viability (SEM cells [4]; [40]) was 43.7%. For the same molecule, the cell viability (P12-Ichikawa [6]; 0.000781 µM) was 106%, the cell viability (P12-Ichikawa [6]; 0.00234 µM) was 117% and the cell viability (P12-Ichikawa [6]; 0.00702 µM) was 122%. It also gave a cell viability (P12-Ichikawa [6]; 0.0211 µM) of 126%, a cell viability (P12-Ichikawa [6]; 0.0632 µM) of 126% and a cell viability (P12-Ichikawa [6]; 0.19 µM) of 133%. The cell viability (P12-Ichikawa [6]; 0.569 µM) was 120%, the cell viability (P12-Ichikawa [6]; 1.71 µM) was 136% and the cell viability (P12-Ichikawa [6]; 5.12 µM) was 121%. The cell viability (P12-Ichikawa [6]; 15.4 µM) was 102% and the cell viability (P12-Ichikawa [6]; 46.1 µM) was 8.9%.
